This passage reports GI50 and TGI results from PubChem BioAssay (NCI).

Some test systems named below: 786-0 renal; M14 melanoma; HCT-15 colon; SR leukemia; LOX IMVI melanoma; DU-145 prostate; SNB-19 CNS; SN12C renal; HCT-116 colon; RPMI-8226 leukemia.
What all share (experiment): DTP human tumour cell line panel, 48 h

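Cells were grown in 96-well plates and exposed to each compound for 48 hours at five concentrations; endpoints were interpolated linearly between bracketing concentrations, or set to the highest concentration if not reached. Abbreviation: GI50, concentration required for 50% inhibition of growth. The concentration for full growth arrest is given as TGI.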

In the case of `CC/C=C\C[C@H]1C/C=C2/C(=O)C=C[C@H]2C/C=C\CCCC(=O)O1`, the GI50 (in general, the concentration giving 50% growth inhibition) in the test on 786-0 renal was 3.24 µM; with M14 melanoma, 1.69 µM; in the test on HCT-15 colon it was 1.5 µM; in the test with SR leukemia it was 1.34 µM; in the test on LOX IMVI melanoma, 1.68 µM; in the test on DU-145 prostate it was 1.9 µM. For the same compound, the GI50 in the test with SNB-19 CNS was 5.17 µM; with SN12C renal, 2.62 µM; in the test with HCT-116 colon it was 1 µM; in the test on RPMI-8226 leukemia, 1.59 µM. Moreover, the TGI (in general, the concentration giving total growth inhibition) with 786-0 renal came out at 10.2 µM; in the test on M14 melanoma, 8.34 µM; in the test on HCT-15 colon it was 7.04 µM; in the test with SR leukemia, 21.8 µM; in the test with LOX IMVI melanoma, 6.7 µM; with DU-145 prostate, 7.39 µM. The TGI was 11.2 µM in the test on SNB-19 CNS, greater than 50 µM in the test on SN12C renal, 2.55 µM with HCT-116 colon and 4.82 µM in the test with RPMI-8226 leukemia.

For the compound `CC1(C)OB(c2ccc(N(CCOS(C)(=O)=O)CCOS(C)(=O)=O)cc2)OC1(C)C`, the GI50 with 786-0 renal was 3.41 µM; with M14 melanoma, 3.01 µM; in the test with HCT-15 colon it was 15.6 µM; in the test on SR leukemia it was 0.0234 µM; in the test with LOX IMVI melanoma, 6.98 µM; in the test on DU-145 prostate, 23.3 µM. Further, the GI50 in the test with SNB-19 CNS was 31.3 µM; with SN12C renal, 9.38 µM; in the test with HCT-116 colon it was 10.5 µM; with RPMI-8226 leukemia, 7.75 µM. In addition, the TGI was 21.6 µM in the test on 786-0 renal; 13.7 µM in the test with M14 melanoma; 41 µM in the test on HCT-15 colon; 1.02 µM with SR leukemia; greater than 53.3 µM in the test with LOX IMVI melanoma; 55.7 µM in the test on DU-145 prostate. Moreover, the TGI is greater than 100 µM in the test with SNB-19 CNS, greater than 54.6 µM with SN12C renal, 24.7 µM in the test on HCT-116 colon and greater than 72.5 µM with RPMI-8226 leukemia.

For `Cc1cc(=O)oc2c(C3=NN(C=O)C(c4ccccc4)C3)c(O)ccc12` (stereo not given), the TGI with 786-0 renal is 81.4 µM; in the test on M14 melanoma, greater than 95.9 µM; in the test with HCT-15 colon, greater than 100 µM; in the test with SR leukemia it was greater than 100 µM; in the test with LOX IMVI melanoma, greater than 100 µM; with DU-145 prostate, greater than 100 µM. Further, the concentration for total growth inhibition (TGI) in the test with SNB-19 CNS was greater than 91.2 µM; with SN12C renal, greater than 100 µM; in the test with HCT-116 colon, greater than 100 µM; in the test with RPMI-8226 leukemia, greater than 100 µM.
